Measured values reported in patent US20030021782A1, “Chlamydia infection” (priority 2001, published 2003).

Tested on: C. pneumoniae strain AR-39 in HMEC-1 cells
Test: Assay for growth (infectivity) enhancing activity: C. pneumoniae inclusion counts in HMEC-1 cell culture
Type: cell-based
Settings: for enhancement of growth of C. pneumoniae strain AR-39 in HMEC-1 cells: added to culture medium at 1, 5 and 10 ng/mL, 3 days incubation
Procedure: To assay for growth enhancing activity, conditioned medium, fractions of conditioned medium, insulin-like growth factor-1 (IGF-1) and IGF-2 were tested in HMEC-1 cell culture for enhanced susceptibility to C. pneumoniae. HMEC-1 cells were trypsinized from stock cultures and plated to achieve a cell monolayer in 24 h in 24-well culture plates. A 12 mm diameter glass coverslip was placed in each well for growing cells for ease of staining for microscopic observation and counting inclusions for assaying titers. For inoculation of cell culture, the culture fluid was removed and the cell monolayer washed three times with Hank's balanced salt solution. Two-tenth mL of inoculum were added per well and the plate was centrifuged for 1 h at 700 to 800× g at 25° C. After centrifugation, the inocula were removed, 1 mL of specified culture medium was added, and the plates were incubated in a CO2 incubator at 35° C. for 3 days. After incubation, coverslips were removed, fixed with methanol and stained with a Chlamydia genus-specific monoclonal antibody conjugated with fluorescein isothiocyanate. Inclusions were counted in 30 random fields at ×400 magnification. The infectivity titers were expressed as inclusion forming units (ifus) per milliliter, which had been adjusted for dilution factor and inoculum size (Furness et al., J. Gen Micro. 23:213-9, 1960). Triplicate coverslips were counted in each experiment. Experiments were repeated 2 or 3 times.
Characterization of Chlamydial growth enhancing factors was carried out as follows. Conditioned medium of a one day old culture of U937 cells in RPMI supplemented with 2% fetal calf serum was used. Conditioned medium was heated at 70° C. for 2 h and tested for growth enhancing activity against AR-39 in HMEC-1 cells. An equal volume of conditioned medium was mixed with fresh endothelial basal medium containing 2% fetal calf serum for culturing infected HMEC-1 cells.
For determining molecular size, one day old conditioned medium of U937 cells cultured in serum-free macrophage culture medium was fractionated into molecular weight ranges of larger than 30,000, 30,000 to 10,000, 10,000 to 5,000 and smaller than 5,000 using three different pore size filters, Biomax-30, Biomax-10 and Biomax-5 ultrafilters (Millipore, Bedford, Mass.) with the molecular weight cut-off of 30,000; 10,000; and 5,000, respectively. For size fractionation, a starting volume of 200 mL of conditioned medium was used. Each fraction was concentrated to 2 mL (a 100× concentration). The remaining filtrate which had been passed through the 5,000 molecular weight pore size filter also was saved for testing. That fraction and the starting conditioned medium were tested without concentration. […]

Row | Substance | enhancement of growth of C. pneumoniae strain AR-39 in HMEC-1 cells | enhancing activity (increase) (0.5 ng/mL, p<0.05, N=3) [%] | enhancing activity (increase) (5 ng/mL, p<0.001) [%]
1 | insulin-like growth factor-1 [IGF-1] | not | – | –
2 | insulin-like growth factor-2 [IGF-2] | enhanced the growth | 35 | 256
